What all share (assay): 1H-15N HSQC NMR titration, one-site fit of chemical shift differences
Holding throughout (format): binding

The target in assay [1] is T1, isolated TDP-43 RRM2 (191–269) (Homo sapiens, UniProt Q13148).
T1 construct: gene TARDBP
An excerpt: 1H-15N HSQC NMR titration, one-site fit of chemical shift differences on isolated TDP-43 RRM2 (191–269) | isolated RRM2 is also able to bind ATP to induce large shifts

Assay [2] addresses T2, tethered hnRNPA1 RRM1–RRM2 (5–184) (Homo sapiens, UniProt P09651).
T2 construct: ATP site in RRM2

In assay [3] the target is T3, isolated hnRNPA1 RRM2 (94–184) (Homo sapiens, UniProt P09651).
T3 construct: printed as 90-residue
T3 sequence (P09651 94-184): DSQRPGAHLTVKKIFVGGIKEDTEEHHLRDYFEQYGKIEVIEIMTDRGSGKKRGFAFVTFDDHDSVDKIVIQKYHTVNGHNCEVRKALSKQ

T1 sequence (Q13148 191-269): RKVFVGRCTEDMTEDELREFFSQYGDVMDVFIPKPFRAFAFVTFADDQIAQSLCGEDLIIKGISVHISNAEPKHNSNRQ
T2 sequence (P09651 5-184): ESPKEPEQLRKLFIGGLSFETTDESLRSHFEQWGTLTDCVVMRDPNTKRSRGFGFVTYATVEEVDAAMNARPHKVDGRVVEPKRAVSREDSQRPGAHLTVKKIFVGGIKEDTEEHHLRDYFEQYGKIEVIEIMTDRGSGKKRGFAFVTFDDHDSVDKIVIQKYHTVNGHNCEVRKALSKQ

One may read the Kd as the concentration at which binding is half-saturated. Consider `Nc1ncnc2c1ncn2[C@@H]1O[C@H](COP(=O)(O)OP(=O)(O)OP(=O)(O)O)[C@@H](O)[C@H]1O` [ATP], for which the figures for the Kd in assay [1], in assay [2] and in assay [3] were 16.7 ± 0.9 mM, 4.9 mM and 7.7 mM, respectively.

For the origin of these results see paper PMC7806782, “Tethering-induced destabilization and ATP-binding for tandem RRM domains of ALS-causing TDP-43 and hnRNPA1” (Scientific Reports, 2021).
